Results taken from US20260085053A1, “BENZOFURAN DERIVATIVES AS SIK INHIBITORS AND THE USE THEREOF” (BEONE MEDICINES I GMBH, priority 2023, published 2026).

Tests used:
[1] = biological target: T1, SIK3 kinase (aa59-365, Thermo Fisher) (Homo sapiens, UniProt Q9Y2K2); assay: Biochemical activities determination for SIK3 protein (TR-FRET); settings: 125 uM ATP, 0.5 μM STK1 substrate
T1 construct: SIK3 kinase (aa59-365, Thermo Fisher); purchased Thermo Fisher
Procedure: 3. Biochemical Activities Determination for SIK3 Protein
Compounds were tested for inhibition of SIK3 kinase (aa59-365, Thermo Fisher) in assays based on the time-resolved fluorescence-resonance energy transfer (TR-FRET) methodology. The assays were carried out in 384-well low volume white plates in a reaction mixture containing SIK3 kinase, 125 uM ATP, 0.5 μM STK1 substrate and 0-10 μM compound in buffer containing 25 mM Tris, 0.01% Trition X-100, 0.5 mM EGTA, 5 mM MgCl2, 2.5 mM DTT, PH=7.5. The kinase was incubated with compound for 60 minutes at room temperature and the reaction was initiated by the addition of ATP and STK1 substrate. After reaction at room temperature for 180 minutes, an equal volume of stop/detection solution was added according to the manufacture's instruction (CisBio Bioassays). The stop/detection solution contained STK Antibody-Cryptate and XL665-conjugated streptavidin (Cat: 62ST1PEC, Cisbio) in Detection Buffer (Cat: 62SDBRDF, Cisbio). Plates were sealed and incubated at room temperature for overnight, and the TR-FRET signals (ratio of fluorescence emission at 665 nm over emission at 620 nm with excitation at 337 nm wavelength) were recorded on a PHERAstar FS plate reader (BMG Labtech). Phosphorylation of STK1 substrate led to the binding of STK Antibody-Cryptate to the biotinylated STK1 substrate, which places fluorescent donor (Eu^3+ crypate) in close proximity to the accepter (Streptavidin-XL665), thus resulting in a high degree of fluorescence resonance energy transfer from the donor fluorophore (at 620 nm) to the acceptor fluorophore (at 665 nm). […] The IC50 for each compound was derived from fitting the data to the four-parameter logistic equation by Dotmatics.

[2] = biological target: T2, SIK2 kinase (full length, Thermo Fisher) (Homo sapiens, UniProt Q9H0K1); assay: Biochemical activities determination for SIK2 protein (TR-FRET); settings: 80 uM ATP, 0.5 μM substrate
T2 construct: SIK2 kinase (full length, Thermo Fisher); purchased Thermo Fisher
T2 sequence (Q9H0K1 whole entry): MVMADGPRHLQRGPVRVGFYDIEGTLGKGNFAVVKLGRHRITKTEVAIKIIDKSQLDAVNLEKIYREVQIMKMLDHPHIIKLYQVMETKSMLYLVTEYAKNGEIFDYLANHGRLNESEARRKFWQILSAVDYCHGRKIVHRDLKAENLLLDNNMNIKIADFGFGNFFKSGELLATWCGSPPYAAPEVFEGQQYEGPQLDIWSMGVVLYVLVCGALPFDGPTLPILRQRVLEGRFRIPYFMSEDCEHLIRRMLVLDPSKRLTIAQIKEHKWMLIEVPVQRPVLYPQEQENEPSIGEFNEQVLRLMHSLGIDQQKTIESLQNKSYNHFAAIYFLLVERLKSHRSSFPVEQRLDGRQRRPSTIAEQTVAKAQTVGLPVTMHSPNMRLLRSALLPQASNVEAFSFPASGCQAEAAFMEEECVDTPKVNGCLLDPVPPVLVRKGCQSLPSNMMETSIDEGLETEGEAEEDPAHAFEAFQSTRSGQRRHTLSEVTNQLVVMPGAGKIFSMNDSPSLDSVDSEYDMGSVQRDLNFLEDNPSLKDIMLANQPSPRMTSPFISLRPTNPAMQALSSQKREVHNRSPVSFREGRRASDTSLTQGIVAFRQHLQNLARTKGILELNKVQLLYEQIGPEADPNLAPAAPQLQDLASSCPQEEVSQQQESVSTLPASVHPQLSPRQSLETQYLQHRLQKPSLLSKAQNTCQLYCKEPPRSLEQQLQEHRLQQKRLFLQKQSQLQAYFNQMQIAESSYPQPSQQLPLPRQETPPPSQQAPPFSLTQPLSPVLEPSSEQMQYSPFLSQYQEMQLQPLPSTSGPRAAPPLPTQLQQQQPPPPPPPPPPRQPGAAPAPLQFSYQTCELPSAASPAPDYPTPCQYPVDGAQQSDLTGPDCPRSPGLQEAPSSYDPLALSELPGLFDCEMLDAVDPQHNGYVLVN
Procedure: 2. Biochemical Activities Determination for SIK2 Protein
(§1) Compounds were tested for inhibition of SIK2 kinase (full length, Thermo Fisher) in assays based on the time-resolved fluorescence-resonance energy transfer (TR-FRET) methodology. The assays were carried out in 384-well low volume white plates in a reaction mixture containing SIK2 kinase, 80 uM ATP, 0.5 μM SIK1 substrate and 0-10 μM compound in buffer containing 25 mM Tris, 0.01% Trition X-100, 0.5 mM EGTA, 5 mM MgCl2, 2.5 mM DTT, pH=7.5. The kinase was incubated with compounds for 60 minutes at room temperature and the reaction was initiated by the addition of ATP and STK1 substrate. After reaction at room temperature for 180 minutes, an equal volume of stop/detection solution was added according to the manufacture's instruction (CisBio Bioassays). The stop/detection solution contained STK Antibody-Cryptate and XL665-conjugated streptavidin (Cat: 62ST1PEC, Cisbio) in Detection Buffer (Cat: 62SDBRDF, Cisbio). Plates were sealed and incubated at room temperature for overnight, and the TR-FRET signals (ratio of fluorescence emission at 665 nm over emission at 620 nm with excitation at 337 nm wavelength) were recorded on a PHERAstar FS plate reader (BMG Labtech). Phosphorylation of STK1 substrate led to the binding of STK Antibody-Cryptate to the biotinylated STK1 substrate, which places fluorescent donor (Eu^3+ crypate) in close proximity to the accepter (Streptavidin-XL665), thus resulting in a high degree of fluorescence resonance energy transfer from the donor fluorophore (at 620 nm) to the acceptor fluorophore (at 665 nm). […] The IC50 for each compound was derived from fitting the data to the four-parameter logistic equation by Dotmatics.

[3] = biological target: T3, SIK1 kinase (aa1-303, Thermo Fisher) (Homo sapiens, UniProt P57059); assay: Biochemical activities determination for SIK1 protein (TR-FRET); settings: 110 uM ATP, 0.5 μM STK1 substrate
T3 construct: SIK1 kinase (aa1-303, Thermo Fisher); purchased Thermo Fisher
T3 sequence (P57059 1-303): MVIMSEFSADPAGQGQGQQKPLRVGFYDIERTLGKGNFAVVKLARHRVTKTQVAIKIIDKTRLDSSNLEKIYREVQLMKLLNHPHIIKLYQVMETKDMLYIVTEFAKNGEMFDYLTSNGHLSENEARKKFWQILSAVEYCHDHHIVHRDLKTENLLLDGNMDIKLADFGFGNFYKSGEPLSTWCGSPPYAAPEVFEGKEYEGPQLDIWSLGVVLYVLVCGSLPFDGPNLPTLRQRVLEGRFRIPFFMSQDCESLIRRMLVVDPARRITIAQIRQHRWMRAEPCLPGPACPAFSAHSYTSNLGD
Procedure: 1. Biochemical Activities Determination for SIK1 Protein
as §1, with “of SIK1” for “of SIK2”, “kinase (aa1-303,” for “kinase (full length,”, “containing SIK1” for “containing SIK2”, “kinase, 110” for “kinase, 80”, “μM STK1” for “μM SIK1”, “biotinylated […]” for “biotinylated STK1”

T1 sequence (Q9Y2K2 59-365): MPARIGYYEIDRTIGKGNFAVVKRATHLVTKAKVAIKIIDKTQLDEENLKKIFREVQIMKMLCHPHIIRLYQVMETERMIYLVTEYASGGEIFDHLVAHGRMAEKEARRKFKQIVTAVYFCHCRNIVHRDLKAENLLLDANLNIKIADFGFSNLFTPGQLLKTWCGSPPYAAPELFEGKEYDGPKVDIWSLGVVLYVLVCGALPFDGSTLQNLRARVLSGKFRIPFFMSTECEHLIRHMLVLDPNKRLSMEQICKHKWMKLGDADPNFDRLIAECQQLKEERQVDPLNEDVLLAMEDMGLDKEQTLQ

Row | SMILES | IC50 [1] [nM] | IC50 [2] [nM] | IC50 [3] [nM]
1 | COc1cc(-c2coc3cc(-c4cnn(C)c4)ccc23)cc2c1C(=O)N(CC(F)(F)F)CCO2 [Compound 28, 6-methoxy-8-(6-(1-methyl-1H-pyrazol-4-yl)benzofuran-3-yl)-4-(2,2,2-trifluoroethyl)-3,4-dihydrobenzo[f][1,4]oxazepin-5 (2H)-one] | 281 | 140 | 3940
2 | COc1cc(-c2coc3cc(-c4cnn(C)c4)ccc23)cc2c1C(=O)N(CC(F)(F)F)[C@@H](C)C2 [Compound 29A, (S)-8-methoxy-3-methyl-6-(6-(1-methyl-1H-pyrazol-4-yl)benzofuran-3-yl)-2-(2,2,2-trifluoroethyl)-3,4-dihydroisoquinolin-1 (2H)-one] | 42 | 15 | 216
3 | COc1cc(-c2coc3cc(-c4cnn(C)c4)ccc23)cc2c1C(=O)N(CC(F)(F)F)[C@H](C)C2 [Compound 29B, (R)-8-methoxy-3-methyl-6-(6-(1-methyl-1H-pyrazol-4-yl)benzofuran-3-yl)-2-(2,2,2-trifluoroethyl)-3,4-dihydroisoquinolin-1 (2H)-one] | 374 | 178 | 5980
4 | COc1cc(-c2coc3cc(-c4cnn(C)c4)ccc23)cc2c1C(=O)N(Cc1ccncc1)CC2 [Compound 30, 8-methoxy-6-(6-(1-methyl-1H-pyrazol-4-yl)benzofuran-3-yl)-2-(pyridin-4-ylmethyl)-3,4-dihydroisoquinolin-1 (2H)-one] | 1110 | 531 | 2610
5 | COc1cc(-c2coc3cc(-c4cnn(C)c4)ccc23)cc2c1C(=O)N(Cc1ccccc1)CC2 [Compound 31, 2-benzyl-8-methoxy-6-(6-(1-methyl-1H-pyrazol-4-yl)benzofuran-3-yl)-3,4-dihydroisoquinolin-1 (2H)-one] | 882 | 673 | 5450
6 | Cn1cc(-c2ccc3c(-c4ccc(C#N)cc4)coc3c2)cn1 [Compound 32, 4-(6-(1-methyl-1H-pyrazol-4-yl)benzofuran-3-yl)benzonitrile] | 829 | 96 | 1880
7 | COc1cc(-c2coc3cc(-c4cnn(C)c4)ccc23)cc2c1C(=O)N(CC(F)(F)F)CC2(C)C [Compound 33, 8-methoxy-4,4-dimethyl-6-(6-(1-methyl-1H-pyrazol-4-yl)benzofuran-3-yl)-2-(2,2,2-trifluoroethyl)-3,4-dihydroisoquinolin-1 (2H)-one] | 156 | 82 | 9100
8 | COc1cc(-c2coc3cc(-c4cnn(C)c4)ccc23)cc(OC)c1-c1nnc(C)o1 [Compound 34, 2-(2,6-dimethoxy-4-(6-(1-methyl-1H-pyrazol-4-yl)benzofuran-3-yl)phenyl)-5-methyl-1,3,4-oxadiazole] | 420 | 239 | 2680
9 | COc1cc(-c2coc3cc(-c4cnn(C)c4)ccc23)cc(OC)c1-c1nnc(C2CC2)o1 [Compound 35, 2-cyclopropyl-5-(2,6-dimethoxy-4-(6-(1-methyl-1H-pyrazol-4-yl)benzofuran-3-yl)phenyl)-1,3,4-oxadiazole] | 255 | 132 | 2080
10 | CCc1nnc(-c2c(OC)cc(-c3coc4cc(-c5cnn(C)c5)ccc34)cc2OC)o1 [Compound 36, 2-(2,6-dimethoxy-4-(6-(1-methyl-1H-pyrazol-4-yl)benzofuran-3-yl)phenyl)-5-ethyl-1,3,4-oxadiazole] | 305 | 144 | 2090

Now from value to compound:

Row | IC50 [1] [nM] | IC50 [2] [nM] | IC50 [3] [nM] | SMILES
11 | 4.2 | 1.4 | 25 | COc1cc(-c2coc3cc(-c4cnn(C5CN(C)C5)c4)ccc23)cc(OC(F)F)c1C(=O)N[C@@H]1C[C@@H]1F [Compound 37, 2-(difluoromethoxy)-N-((1R,2S)-2-fluorocyclopropyl)-6-methoxy-4-(6-(1-(1-methylazetidin-3-yl)-1H-pyrazol-4-yl)benzofuran-3-yl)benzamide]
12 | 3.9 | 1.7 | 24 | COc1cc(-c2coc3cc(-c4cnn(C5CCN(C)C5)c4)ccc23)cc(OC(F)F)c1C(=O)N[C@@H]1C[C@@H]1F (stereo partly drawn) [Compound 38, 2-(difluoromethoxy)-N-((1R,2S)-2-fluorocyclopropyl)-6-methoxy-4-(6-(1-(1-methylpyrrolidin-3-yl)-1H-pyrazol-4-yl)benzofuran-3-yl)benzamide]
13 | 4.1 | 1.7 | 25 | COc1cc(-c2coc3cc(-c4cnn(C5CCN(C)CC5)c4)ccc23)cc(OC(F)F)c1C(=O)N[C@@H]1C[C@@H]1F [Compound 39, 2-(difluoromethoxy)-N-((1R,2S)-2-fluorocyclopropyl)-6-methoxy-4-(6-(1-(1-methylpiperidin-4-yl)-1H-pyrazol-4-yl)benzofuran-3-yl)benzamide]
14 | 31 | 14 | 537 | O=C1c2c(cc(-c3coc4cc(-c5cnn(C6CCOC6)c5)ccc34)cc2OC(F)F)CCN1CC(F)(F)F (stereo not drawn) [Compound 40, 8-(difluoromethoxy)-6-(6-(1-(tetrahydrofuran-3-yl)-1H-pyrazol-4-yl)benzofuran-3-yl)-2-(2,2,2-trifluoroethyl)-3,4-dihydroisoquinolin-1 (2H)-one]
15 | 69 | 33 | 1710 | O=C1c2c(cc(-c3coc4cc(-c5cnn(C6CCOCC6)c5)ccc34)cc2OC(F)F)CCN1CC(F)(F)F [Compound 41, 8-(difluoromethoxy)-6-(6-(1-(tetrahydro-2H-pyran-4-yl)-1H-pyrazol-4-yl)benzofuran-3-yl)-2-(2,2,2-trifluoroethyl)-3,4-dihydroisoquinolin-1 (2H)-one]
16 | 115 | 25 | 1590 | O=C1c2c(cc(-c3coc4cc(-c5cnn(C6CNC6)c5)ccc34)cc2OC(F)F)CCN1CC(F)(F)F [Compound 42, 6-(6-(1-(azetidin-3-yl)-1H-pyrazol-4-yl)benzofuran-3-yl)-8-(difluoromethoxy)-2-(2,2,2-trifluoroethyl)-3,4-dihydroisoquinolin-1 (2H)-one]
